Assay results reported in patent publication US6683052B1, “Lipopeptides containing an interferon-γ fragment, and uses thereof in pharmaceutical compositions” (Institut National de la Sante et de la Recherche Medicale …, priority 1998, dated 2004).
Where no end group is shown, it is not given here. The star is where a group is joined. Palmitoyl = CCCCCCCCCCCCCCCC(=O)*

Legend:
[1] = tested on: peritoneal cells; experiment: Expression of class II CMH molecules and Fc-γ receptors on peritoneal cells taken from an animal; assay type: cell-based, Balb/c mouse; conditions: 50 μM, 24 hours, flow cytometry
Procedure: (§1) Principle: to evaluate the activity of the vectorized agonist on cells taken from an animal and treated in vitro (in order to assess the value of a subsequent in vivo study).
(§2) Procedure. The splenocytes and peritoneal cells taken from an animal (Balb/c mouse) are re-cultured at a rate of 2.5×10^6 splenocytes and […] peritoneal cells per well in 24-well plates (NUNC) stimulated with 50 μM of the different peptides in a final volume of 1 ml. After stimulation for 24 hours, the cells are labelled with the anti IA^d monoclonal antibody described in the preceding paragraph, according to the same protocol. To detect the Fc-γ R, the cells are labelled with 1 μg of a rat anti Fc-γ R monoclonal antibody (Pharmingen, San Diego, USA). Next, the cells are incubated for ½ hour with a rat anti IgG biotinylated polyclonal antibody. The revelation is then carried out with FITC streptavidin used at a dilution of 1:100 (Sigma, St. Louis, USA). The expression of Fc-γ R is determined by flow cytometry.

[2] = tested on: P388D1; experiment: Induction of class II CMH molecules on P388D1 cell line, flow cytometry; assay type: cell-based, murine; conditions: 50 μM, stimulated for 24 hours
Procedure: (§3) Principle: to check the induction of class II CMH molecules on cell lines (P388D1 and WEHI3: murine myelomonocytes) with the above-mentioned peptides.
(§4) Procedure. The cells are cultured the day before at a rate of 3×10^5 cells per well in 24-well culture plates (NUNC). The following day, the cells are stimulated with the various lipopeptide and peptide constructs at a final concentration of 50 μM in 1 ml of medium. After incubation for 24 hours at 37° C. in an atmosphere saturated with 5% CO2, the cells are recovered and incubated for 1 hour at 4° C. with 3 μg of a biotinylated mouse anti-I-Ad monoclonal antibody (Pharmingen, San Diego, USA). After revelation for 30 minutes with FITC streptavidin used at a dilution of 1:100 (Sigma, St. Louis, USA), the expression of class II molecules is determined by flow cytometry.

[3] = tested on: splenocytes stimulated with anti-CD40 and IL-4; experiment: Inhibition of IL-4 activity: anti-CD40 + IL-4 proliferation of splenocytes, tritiated thymidine; assay type: cell-based, Balb/c mice; conditions: 10 μM
Text: It is commonly described that the immunomodulatory potential of IFN-γ lies in its ability to polarize the establishment of a type-1 T helper (Th1) response, while at the same time inhibiting the development of a type-2 T helper (Th2) response. This inhibitory action on the polarization of the Th2 response takes place mainly via inhibition of the activity of IL-4. […] The stimulation of splenocytes with an anti-CD40 antibody (antibody directed against a surface cell label: CD40) and IL-4 induces a proliferation of the murine B cells, following a synergistic action between the CD40 and IL-4 stimulation (Hasbold et al. 1994).
The splenocytes taken from Balb/c mice are cultured and stimulated with anti-CD40 (10 μg/ml) and IL-4 (10 U/ml). 10 μM of the synthetic agonist of IFN-γ (MuL) or of its control lipopeptide (MuSL) are added. After stimulation for 24 hours, tritiated thymidine is added at a rate of 0.5 μCurie per well. After incubation for 18 hours, the cells are filtered off and the incorporation of tritiated thymidine is evaluated. This incorporation is proportional to the cell proliferation.

[4] = tested on: cells taken from mice 129 no longer expressing the alpha chain of the IFN-γ receptor (KO mice); experiment: Involvement of the IFN-γ receptor: IA^d and Fc-γ R on cells of mice lacking the alpha chain of the IFN-γ receptor; assay type: cell-based; conditions: stimulation for 24 hours, flow cytometry
Procedure: as §2
(§5) Principle. to confirm that the biological activity observed was effectively associated with a stimulation of the IFN-γ receptor, we repeated the same experiments, in parallel on splenocytes taken from mice 129 (Wild type: WT) and on cells taken from mice 129 no longer expressing the alpha chain of the IFN-γ receptor (KO mice).
(§6) Procedure. The experimental protocol followed is identical to that described in paragraph 2 above.

[5] = tested on: L929 cells infected with the VSV virus; assay type: cell-based, mouse; conditions: 1 to 10 μM
[6] = tested on: human peripheral blood mononuclear cells (PBMC); experiment: Induction of HLA-DR, ICAM-1 and VCAM-1 on human PBMC; assay type: cell-based; conditions: 24 hours
Procedure: Principle. In the light of the results obtained on the human cell line and on human primary cultures, the immunostimulatory potential of MuL was evaluated on human cells taken directly from a healthy donor.
Procedure. PBMCs are isolated from a bag of blood and the cells are then cultured and stimulated for 24 hours with 25 and 50 μM of MuSL or MuL in a final volume of 1 ml. The cells are then recovered and labelled for the expression of VCAM-1, ICAM-1 and HLA-DR according to the protocol already described above. Finally, the cells are analysed by flow cytometry.

[7] = tested on: COLO 205 human cell line; experiment: Induction of HLA-DR on COLO 205 cells by lipopeptide fragments (FIG. 12B); assay type: cell-based; conditions: COLO 205, 24 hours, different concentrations
Procedure: (§7) Fresh splenocytes are obtained from 7-week-old female 129 Sv mice. The COLO 205 human colon carcinoma lines are obtained from the ATCC (American Type Culture Collection). The splenocytes and COLO 205 cells are maintained in RPMI 1640 (Gibco BRL, Courbevoie, France), supplemented with 10% FCS (Gibco BRL), sodium pyruvate (Sigma, St. Louis, USA) and incubated at 37° C. in 5% CO2.
(§8) The cells were stimulated for 24 hours with different concentrations of MuL, L-mIFNγ 113-132, L-mIFNγ 122-132 or MuSL. The murine splenocytes and COLO 205 cells were labelled for the expression of II MHC with 1 μg of anti-mouse IA^b FITC monoclonal antibody (mAb) (Pharmingen, San Diego, USA) and 10 μl of anti-HLA-DR clone TAL.1B5 mouse FITC mAb (Cymbus Biotechnology Ltd, Hants, UK), respectively. A negative control mouse FITC IgG1 (DAKO S. A., Trappes, France) was used as control isotype. The cells were incubated for 1 hour at 4° C. in PBS, 10% FCS and then washed, and the expression of II MHC was analysed by flow cytometry using a Coulter EPILS II cytometer (Coulter, Hialeah, Fla., USA) at a rate of 10,000 events per sample.
(§9) FIG. 12: Induction of class II CMH molecules by human or murine cells stimulated with lipopeptides derived from IFN-γ. The murine splenocytes (A) and the COLO 205 human cell line (B) were incubated for 24 hours with different concentrations of lipopeptides derived from IFN-γ. The cells were labelled with a monoclonal antibody directed against the class II CMH molecules, and analysed by flow cytometry. The ratio between the average fluorescence intensity of the cells treated with the lipopeptides and between the average fluorescence intensity of the untreated cells is indicated on the y-axis. The lipopeptide concentration is indicated in μM on the x-axis; MuL: solid circles; MuSL : hollow circles; L-mIFN 113-132: triangles; L-mIFN 122-132: X.

[8] = tested on: human colon carcinoma cells (COLO 205); experiment: Induction of HLA-DR on COLO 205 cell line, flow cytometry; assay type: cell-based; conditions: COLO 205, 50 μM
Procedure: Principle: human colon carcinoma cells (COLO 205) are analysed for their ability to express HLA-DR after having been stimulated with the various peptide constructs.
Procedure. The cell line COLO 205 is cultured at a rate of 3×10^5 cells per well in a 24-well culture plate (NUNC). The following day, the cells are stimulated with the various peptide constructs at a final concentration of 50 μM in 1 ml of medium, and are incubated at 37° C. for 24 hours. The cells are then recovered and labelled using 3 μg of an anti HLA-DR mouse biotinylated monoclonal antibody (clone L243). After revelation with FITC streptavidin, the cells are analysed by flow cytometry.

[9] = tested on: WEHI3; experiment: Induction of class II CMH molecules on WEHI3 cell line, flow cytometry; assay type: cell-based, murine; conditions: 50 μM, stimulated for 24 hours
Procedure: as §3, §4

[10] = tested on: splenocytes taken from mice 129 (Wild type: WT); experiment: Involvement of the IFN-γ receptor: IA^d and Fc-γ R on splenocytes of wild type mice 129; assay type: cell-based; conditions: stimulation for 24 hours, flow cytometry
Procedure: as §2, §5, §6

[11] = tested on: splenocytes; experiment: Expression of class II CMH molecules and Fc-γ receptors on splenocytes taken from an animal; assay type: cell-based, Balb/c mouse; conditions: 50 μM, 24 hours
Procedure: as §1, §2

[12] = tested on: murine splenocytes; experiment: Induction of class II CMH molecules (IA^b) on murine splenocytes by lipopeptide fragments (FIG. 12A); assay type: cell-based, 129 Sv mice; conditions: murine splenocytes, 24 hours, different concentrations
Procedure: as §7, §8, §9

MuSL: control "scrambled" lipopeptide: MuL in which the order of the amino acids has been rearranged, Ac-K(Pam) (Ac-K(Palmitoyl)PSRENQNAVKIQKLSVVLRREQKHRVERLAFRNQSLPF)
peritoneal cells II CMH (%) [1]: 13%
peritoneal cells RFc (%) [1]: 20%
percentage of class II CMH detected by flow cytometry, P388D1 [2]: 13%
effect on the synergistic anti-CD40 + IL-4 proliferation (FIG. 4) [3]: no effect
KO mice II CMR (%) [4]: 4%
KO mice RFc (%) [4]: 3%
effect on viral lysis (FIG. 2) [5]: no effect on viral lysis
percentage of ICAM-1 detected on PBMCs ([6]; 25 μM): 29.4%
percentage of VCAM-1 detected on PBMCs ([6]; 25 μM): 39.7%
percentage of HLA-DR detected on PBMCs ([6]; 50 μM): 58.3%
percentage of ICAM-1 detected on PBMCs ([6]; 50 μM): 32%
percentage of VCAM-1 detected on PBMCs ([6]; 50 μM): 86.9%
increase in class II CMH molecules (FIG. 12B) [7]: neither L-mIFN-γ 122-132 nor MuSL are active
induction of the expression of HLA-DR [8]: no activity
% HLA-DR ([8]; 24 hours, flow cytometry): 8.9%
percentage of class II CMH detected by flow cytometry, WEH1 [9]: 15%
WT mice II CMH (%) [10]: 4%
WT mice RFc (%) [10]: 2%
splenocytes II CMH (%) ([11]; flow cytometry): 14%
splenocytes RFc (%) ([11]; flow cytometry): 15%
increase of IA^d and of Fc-γ R on the treated cells ([11]; splenocytes and peritoneal cells): no notable activity
increase in class II CMH molecules (FIG. 12A) [12]: neither L-mIFN-γ 122-132 nor MuSL are active
